Drawing on ChEMBL document CHEMBL1154541, “Synthesis of H-bonding probes of alpha7 nAChR agonist selectivity” (Bioorg Med Chem Lett, 2009), this text covers Activity and ED50 for five molecules.

Calls of active or inactive are those of the source. No cut-off for these calls is given here. A value given as a limit tells only on which side of the number the result lay.

Assay type in all cases: functional, cell-based
Holding throughout (details): Oocyte

Assay [1] has as its target Acetylcholine receptor subunit alpha (Homo sapiens) (UniProt P02708). The assay can be described thus: Agonist activity to alpha-1-beta-1-epsilon-delta nAChR expressed in Xenopus oocytes assessed as response current at 100 uM by two-electrode voltage clamp relative to acetylcholine. (In general: In two-electrode clamp one electrode senses voltage and the other passes current.)

Assay [2] addresses Neuronal acetylcholine receptor subunit alpha-7 (Homo sapiens) (UniProt P36544). The assay can be described thus: Agonist activity to alpha7 nAChR expressed in Xenopus oocytes assessed as response current by two-electrode voltage clamp relative to acetylcholine.
Assay [3] addresses Neuronal acetylcholine receptor; alpha4/beta2 (Homo sapiens) (UniProt P17787+P43681). Put plainly: Agonist activity to alpha4beta2 nAChR expressed in Xenopus oocytes assessed as response current at 100 uM by two-electrode voltage clamp relative to acetylcholine.
Assay [4] addresses Neuronal acetylcholine receptor subunit alpha-7 (Homo sapiens) (UniProt P36544). The assay can be described thus: Agonist activity to alpha7 nAChR expressed in Xenopus oocytes assessed as response current at 100 uM by two-electrode voltage clamp relative to acetylcholine.
The target is the same in assay [5]. Put plainly: Agonist activity to alpha7 nAChR expressed in Xenopus oocytes assessed as response current at 1mM by two-electrode voltage clamp relative to acetylcholine.
The target of assay [6] is Neuronal acetylcholine receptor; alpha3/beta4 (Homo sapiens) (UniProt P30926+P32297). Put plainly: Agonist activity to alpha3beta4 nAChR expressed in Xenopus oocytes assessed as response current at 100 uM by two-electrode voltage clamp relative to acetylcholine.

Neuronal acetylcholine receptor subunit alpha-7 (Homo sapiens), sequence (P36544 whole entry): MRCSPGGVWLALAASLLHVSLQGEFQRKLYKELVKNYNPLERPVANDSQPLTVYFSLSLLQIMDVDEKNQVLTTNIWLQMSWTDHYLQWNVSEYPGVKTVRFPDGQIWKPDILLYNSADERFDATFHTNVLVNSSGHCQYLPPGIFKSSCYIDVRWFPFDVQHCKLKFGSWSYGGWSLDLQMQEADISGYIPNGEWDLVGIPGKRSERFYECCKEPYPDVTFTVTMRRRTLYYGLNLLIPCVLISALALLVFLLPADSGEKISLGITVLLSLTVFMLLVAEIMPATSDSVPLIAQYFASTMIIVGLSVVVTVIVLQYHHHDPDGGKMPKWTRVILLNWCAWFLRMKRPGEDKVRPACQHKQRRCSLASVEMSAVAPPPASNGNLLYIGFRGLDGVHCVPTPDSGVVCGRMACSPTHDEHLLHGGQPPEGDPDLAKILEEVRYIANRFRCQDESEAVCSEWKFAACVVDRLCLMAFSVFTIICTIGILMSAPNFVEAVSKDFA
Acetylcholine receptor subunit alpha (Homo sapiens), sequence (P02708 whole entry): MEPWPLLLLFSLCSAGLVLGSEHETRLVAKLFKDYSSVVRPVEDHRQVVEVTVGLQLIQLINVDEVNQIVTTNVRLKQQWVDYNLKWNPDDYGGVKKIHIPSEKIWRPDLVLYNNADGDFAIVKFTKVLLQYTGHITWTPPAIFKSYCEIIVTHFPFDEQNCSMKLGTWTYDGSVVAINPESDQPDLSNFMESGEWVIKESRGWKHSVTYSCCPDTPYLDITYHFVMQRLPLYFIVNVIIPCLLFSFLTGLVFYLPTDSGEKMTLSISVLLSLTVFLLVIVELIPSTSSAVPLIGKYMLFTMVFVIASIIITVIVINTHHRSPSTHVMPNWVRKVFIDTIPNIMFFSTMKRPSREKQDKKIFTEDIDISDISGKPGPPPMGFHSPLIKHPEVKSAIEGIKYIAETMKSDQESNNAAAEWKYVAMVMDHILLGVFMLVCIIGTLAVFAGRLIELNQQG

Regarding `C(=C1/CCCN=C1c1cccnc1)/c1cccnc1`, the result in assay [1] and in assay [3] was inactive. For the same molecule, the ED50 in assay [2] was determined as 100 µM. Moreover, the Activity in assay [4] was found to be 35%.

Regarding `C(=C1/CCCN=C1c1cccnc1)/c1ccccn1`, the result in assay [1] and in assay [3] was inactive. The Activity in assay [5] is < 20%.

Take `C(=C1/CCCN=C1c1cccnc1)/c1ccc[nH]1`: the outcome in assay [1] and in assay [3] was inactive. In addition, the Activity in assay [4] came out at 40%.

Consider `C(=C1/CCCN=C1c1cccnc1)/c1ccncc1`, for which the result in assay [1] and in assay [3] was inactive. The Activity in assay [5] is < 20%.

As for `C(=C1/CCCN=C1c1cccnc1)/c1cc[nH]c1`, the Activity in assay [4] was 40%; in assay [6], 5%.
